Results: US20070208009A1, “COMBINATION OF ANTI-HIV REVERSE TRANSCRIPTASE AND PROTEASE INHIBITORS” (priority 2004, published 2007)
Like-named read-outs stand apart in the source and are kept apart here.

Assays:
HIV-1 RT = target: T1, HIV-1 RT (Human immunodeficiency virus type 1 group M subtype B, UniProt P04585); details: inhibition of HIV-1 RT; competitive with deoxyadenosine triphosphate incorporation; read-out: inhibition constant; cited from earlier work
T1 construct: The primary target of tenofovir diphosphate is reverse transcriptase (RT)

[1] = test system: laboratory HIV-1 strains and primary clinical isolates; details: cited from earlier work
[2] = atazanavir/ritonavir 300/100 mg once daily, cited from earlier work
[3] = ritonavir 100 mg once daily with atazanavir, cited from earlier work
[4] = cited from earlier work; for Geometric mean ratio (95% confidence interval) for the AUC: saquinavir hard gel/ritonavir 1000/100 mg twice daily + tenofovir disoproxil fumarate 300 mg once daily
[5] = healthy subjects, cited from earlier work; for AUC increase / Cmax increase / Cmin increase: saquinavir/ritonavir 1000/100 mg twice daily with tenofovir disoproxil fumarate 300 mg once daily vs alone
[6] = Volunteer study of TMC114/ritonavir with tenofovir disoproxil fumarate, pharmacokinetics and tolerability
Method: Methods: 13 healthy volunteers were randomised into 2 cohorts.
In session 2, both cohorts received 300 mg tenofovir disoproxil fumarate qd for 14 days.

[7] = lopinavir/ritonavir 400/100 mg twice daily 14 days + tenofovir 300 mg once daily, healthy volunteers; cited from earlier work
[8] = after addition of tenofovir disoproxil fumarate 300 mg once daily
[9] = before addition of tenofovir disoproxil fumarate
[10] = in the presence of tenofovir 300 mg once daily
[11] = tenofovir disoproxil fumarate 300 mg qd with TMC114/ritonavir co-administered vs alone, statistically significant

For `CC(Cn1cnc2c(N)ncnc21)OCP(=O)(O)OP(=O)(O)OP(=O)(O)O` (stereo in doubt) [tenofovir diphosphate], the Ki (HIV-1 RT) is given as about 900 nM.
In the case of `CC(C)CN(C[C@@H](O)[C@H](Cc1ccccc1)NC(=O)OC1CO[C@H]2OCC[C@@H]12)S(=O)(=O)c1ccc(N)cc1` (some centres unmarked) [TMC114], the IC90 [1] is given as about 9 nM and the IC50 ([1]; read-out: 50% inhibitory concentration [IC50]) is given as about 3 nM.
In the case of `COC(=O)N[C@H](C(=O)N[C@@H](Cc1ccccc1)[C@@H](O)CN(Cc1ccc(-c2ccccn2)cc1)NC(=O)[C@@H](NC(=O)OC)C(C)(C)C)C(C)(C)C` [atazanavir], the “AUC (mean±sd)” value [2, 8] is given as 39276 ± 23034 ng·h/mL, the “Cmax (mean±sd)” value [2, 8] is given as 3443 ± 1412 ng/mL and the “AUC (mean±sd)” value [2, 9] is given as 53761 ± 35255 ng·h/mL. The “Cmax (mean±sd)” value [2, 9] was 5233 ± 3033 ng/mL.
In the case of `CC(C)c1nc(CN(C)C(=O)N[C@H](C(=O)N[C@@H](Cc2ccccc2)C[C@H](O)[C@H](Cc2ccccc2)NC(=O)OCc2cncs2)C(C)C)cs1` [ritonavir], the AUC [3, 10] is listed as 5217 ng·h/mL, the Cmax [3, 10] is listed as 642 ng/mL and the AUC ([3]; without tenofovir, HIV+ subjects) is listed as 7011 ng·h/mL. The Cmax ([3]; without tenofovir) was 886 ng/mL and the “plasma concentrations compared with day 1” value ([4]; in vivo) was “not significantly different”.
For `CC(C)(C)NC(=O)[C@@H]1C[C@@H]2CCCC[C@@H]2CN1C[C@@H](O)[C@H](Cc1ccccc1)NC(=O)[C@H](CC(N)=O)NC(=O)c1ccc2ccccc2n1` [saquinavir], the AUC increase [5] is listed as 29%, the Cmax increase [5] is listed as 22% and the Cmin increase [5] is listed as 47%. For the same molecule, the “Cmin achieved by all subjects” value ([5]; saquinavir/ritonavir 1000/100 mg twice daily) was “above 100 ng/ml”, the “Geometric mean ratio (95% confidence interval) for the AUC” value ([4]; day 3 vs day 1) was 1.16 (0.97, 1.59) and the “Geometric mean ratio (95% confidence interval) for the AUC” value ([4]; day 14 vs day 1) was 0.99 (0.87, 1.30). For the same molecule, the “plasma concentrations compared with day 1” value ([4]; following the addition of tenofovir disoproxil fumarate) was “not significantly different”.
In the case of `C[C@H](Cn1cnc2c(N)ncnc21)OCP(=O)(O)O` [tenofovir], the AUC increase [5] is listed as 14%, the Cmax increase [5] is listed as 15% and the Cmin increase [5] is listed as 23%. The “urinary excretion of unchanged drug during one dosing interval” value ([6]; in the presence and absence of TMC114/RTV) was “approximately 36%”, the “AUC24h (systemic exposure) increase based on the ratio of LSmeans” value [6, 11] was 22% and the “Cmax increase based on the ratio of LSmeans” value [6, 11] was 24%. The “Cmin increase based on the ratio of LSmeans” value [6, 11] was 37%, the AUC increase [7] was 34% and the Cmax increase [7] was 31%. The Cmin increase [7] was 29%.
